Earlier results as cited in US20200113824A1, “DISPENSING CAP CONTAINING A SOLUBILISATE OF A […] ACTIVE AGENT OR DIETARY SUPPLEMENT” (priority 2017, published 2020).

Assays:
[1] = tested on: murine gut microbiota; conditions: promoting obesity and inflammatory bowel diseases
[2] = biological target: P-glycoprotein (Homo sapiens, UniProt P08183)
[3] = biological target: human CYP3A4 (Homo sapiens, UniProt P08684)
Sequence of human CYP3A4 (P08684 whole entry): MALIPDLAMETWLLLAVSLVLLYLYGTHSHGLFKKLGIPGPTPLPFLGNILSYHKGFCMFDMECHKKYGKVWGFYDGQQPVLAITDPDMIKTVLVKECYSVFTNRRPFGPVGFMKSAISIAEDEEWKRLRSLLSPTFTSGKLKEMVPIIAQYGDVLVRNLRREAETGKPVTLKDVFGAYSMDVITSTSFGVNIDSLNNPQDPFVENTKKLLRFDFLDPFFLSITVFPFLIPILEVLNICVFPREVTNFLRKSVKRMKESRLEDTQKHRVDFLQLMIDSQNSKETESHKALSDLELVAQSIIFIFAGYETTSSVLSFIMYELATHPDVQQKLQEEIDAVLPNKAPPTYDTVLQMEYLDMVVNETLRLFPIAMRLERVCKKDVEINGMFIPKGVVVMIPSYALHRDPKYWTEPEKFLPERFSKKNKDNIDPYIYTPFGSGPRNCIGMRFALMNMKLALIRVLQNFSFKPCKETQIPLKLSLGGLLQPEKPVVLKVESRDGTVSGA

Sequence of P-glycoprotein (P08183 whole entry): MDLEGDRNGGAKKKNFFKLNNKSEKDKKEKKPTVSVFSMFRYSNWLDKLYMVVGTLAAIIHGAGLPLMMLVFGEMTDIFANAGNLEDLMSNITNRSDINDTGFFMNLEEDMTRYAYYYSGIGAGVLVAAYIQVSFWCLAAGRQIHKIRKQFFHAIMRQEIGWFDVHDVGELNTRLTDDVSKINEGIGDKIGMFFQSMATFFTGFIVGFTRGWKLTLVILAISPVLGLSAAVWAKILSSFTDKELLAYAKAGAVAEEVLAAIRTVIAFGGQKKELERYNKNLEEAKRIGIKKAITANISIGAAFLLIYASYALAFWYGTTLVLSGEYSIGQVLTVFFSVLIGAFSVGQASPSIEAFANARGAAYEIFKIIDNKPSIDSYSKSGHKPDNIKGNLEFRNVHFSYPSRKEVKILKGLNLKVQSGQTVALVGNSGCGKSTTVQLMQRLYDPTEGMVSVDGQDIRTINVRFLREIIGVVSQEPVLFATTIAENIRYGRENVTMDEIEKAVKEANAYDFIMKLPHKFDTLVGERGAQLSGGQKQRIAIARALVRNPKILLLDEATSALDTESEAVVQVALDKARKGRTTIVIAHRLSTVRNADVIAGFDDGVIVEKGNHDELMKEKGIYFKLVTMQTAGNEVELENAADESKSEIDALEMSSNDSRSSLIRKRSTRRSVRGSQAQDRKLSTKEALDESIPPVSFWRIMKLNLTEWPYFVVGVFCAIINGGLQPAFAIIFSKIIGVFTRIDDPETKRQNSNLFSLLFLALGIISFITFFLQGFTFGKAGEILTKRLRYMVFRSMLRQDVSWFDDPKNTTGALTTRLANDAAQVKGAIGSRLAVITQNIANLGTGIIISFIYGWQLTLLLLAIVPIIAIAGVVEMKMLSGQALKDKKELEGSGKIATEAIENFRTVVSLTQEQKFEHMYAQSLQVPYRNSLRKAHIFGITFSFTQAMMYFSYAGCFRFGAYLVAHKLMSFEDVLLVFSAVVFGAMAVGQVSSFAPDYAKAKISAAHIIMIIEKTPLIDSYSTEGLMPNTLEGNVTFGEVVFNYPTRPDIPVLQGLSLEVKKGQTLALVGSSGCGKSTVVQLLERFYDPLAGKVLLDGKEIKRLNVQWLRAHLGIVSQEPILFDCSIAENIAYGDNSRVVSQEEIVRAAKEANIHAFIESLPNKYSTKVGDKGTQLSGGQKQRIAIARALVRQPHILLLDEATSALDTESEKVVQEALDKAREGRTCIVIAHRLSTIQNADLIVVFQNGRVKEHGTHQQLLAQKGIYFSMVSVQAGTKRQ

Row | Compound | effects on murine gut microbiota [1] | inhibition of P-glycoprotein [2] | inhibition of human CYP3A4 [3]
1 | Polysorbate-80 | detrimental effects | – | –
2 | O=C(C=CC=Cc1ccc2c(c1)OCO2)N1CCCCC1 [Piperine, 1-[5-(1,3-benzodioxol-5-yl)-1-oxo-2,4-pentadienyl]piperidine] | – | inhibit | inhibit
